Columns and labels:
[1] = depending on the wavelength and intensity; cited from earlier work
[2] = Photostability to UV light, first assay (IAA concentration by Salkwolski reagent); type: physicochemical
Procedure: For validating the formulation that guarantees photostability of the indoleacetic acid phytohormone, two procedures were carried out. In the first assay, the following was compared: i) synthetic IAA with water (with no protection from melanoidins); ii) synthetic IAA with the same culture medium used in the biological IAA production process of the present invention and iii) biological IAA; all samples being subjected to the sterilization process at 121° C. for approximately 1 hour, as claimed for the stabilization of indole compounds due to the production of melanoidins via Maillard reaction. After the period of time required for stabilization, IAA concentrations were assessed using Salkwolski reagent according to the methodology proposed by Glickmann and Dessaux (1994).

SMILES	reduction of IAA by light decomposition [1]	photodegradation ([2]; 1 hour of exposure to UV light, samples sterilized at 121° C. for approximately 1 hour)	degradation by UV light (in words) ([2]; after 4 hours of exposure to UV light)
O=C(O)Cc1c[nH]c2ccccc12 [IAA, indoleacetic acid]	up to 90%	–	–
O=C(O)Cc1c[nH]c2ccccc12 [indoleacetic acid]	–	74.5%	fully degraded

— patent US12721342B2, “Agricultural composition of indoleacetic acid having increased photostability, process for the production and use thereof” (TOTAL BIOTECNOLOGIA INDÚSTRIA E COMÉRCIO S/A, priority 2021, dated 2026)
